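Method: 48-hour compound exposure of cells in 96-well plates, five concentrations, linear interpolation of endpoints. The concentration for full growth arrest is given as TGI.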
Legend:
Assay in all cases: NCI tumour cell line growth inhibition, 48 h
CCRF-CEM leukemia = system: CCRF-CEM leukemia
COLO 205 colon = system: COLO 205 colon
HCC-2998 colon = system: HCC-2998 colon
HL-60(TB) leukemia = system: HL-60(TB) leukemia
MDA-MB-231 breast = system: MDA-MB-231 breast
MDA-MB-435 = system: MDA-MB-435
SR leukemia = system: SR leukemia
SW-620 colon = system: SW-620 colon
DLD-1 colon = system: DLD-1 colon
DMS 114 small cell lung = system: DMS 114 small cell lung
DMS 273 small cell lung = system: DMS 273 small cell lung
M19-MEL melanoma = system: M19-MEL melanoma
SNB-78 CNS = system: SNB-78 CNS

Row | SMILES | TGI (CCRF-CEM leukemia) | TGI (COLO 205 colon) | TGI (HCC-2998 colon) | TGI (HL-60(TB) leukemia) | TGI (MDA-MB-231 breast) | TGI (MDA-MB-435) | TGI (SR leukemia) | TGI (SW-620 colon) | TGI (DLD-1 colon) | TGI (DMS 114 small cell lung) | TGI (DMS 273 small cell lung) | TGI (M19-MEL melanoma) | TGI (SNB-78 CNS)
1 | Cc1nc2ccccc2n1Cc1nnc(N)o1 | > 100 µM | > 100 µM | > 100 µM | > 100 µM | > 100 µM | 21.3 µM | > 100 µM | > 100 µM |  |  |  |  | 
2 | CC12CCC(C(Nc3ccccn3)C1=O)C2(C)C (stereo not given) | > 100 µM | > 100 µM | > 100 µM | > 100 µM | > 100 µM | > 100 µM | > 100 µM | > 100 µM |  |  |  |  | 
3 | Nn1c(Cc2ccccc2)n[nH]c1=O | > 100 µM | > 100 µM | > 100 µM | > 100 µM | > 100 µM | > 100 µM | > 100 µM | > 100 µM |  |  |  |  | 
4 | O=c1cc(N=Nc2ccc(Cl)cc2)[nH]c(=O)[nH]1 | 4.94 µM | 5.81 µM | 9.1 µM | 3.89 µM | 8.28 µM | 14 µM | 2.67 µM | 5.65 µM |  |  |  |  | 
5 | Oc1cccc(-c2cn3cc(C(F)(F)F)ccc3n2)c1 | 77.5 µM | > 100 µM | 54 µM | > 100 µM | > 100 µM | > 100 µM | > 100 µM | > 100 µM |  |  |  |  | 
6 | O=[N+]([O-])c1c2nc3n(c2cc2c1nc1n2CCC1)CCC3 | > 100 µM | > 100 µM | > 100 µM | > 100 µM | > 100 µM | > 100 µM | > 100 µM | > 100 µM |  |  |  |  | 
7 | CC(=O)OCC1=C(C)C[C@H]([C@@H](COC(C)=O)C2CCC3C4C[C@H]5O[C@]56CC=CC(=O)[C@]6(C)C4CC[C@@]32C)OC1=O (stereo not given in full) | 0.353 µM | 1 µM | 1.2 µM | 0.198 µM | 1.91 µM | 0.721 µM | 0.123 µM | 0.322 µM |  |  |  |  | 
8 | CC(C)C1CC[C@H](C)C[C@@H]1OC(=O)C(C(=O)O[C@H]1C[C@@H](C)CCC1C(C)C)C(O)[C@@H]1OC(C)(C)O[C@H]1C1COC(C)(C)O1 (stereo not given in full) | 50.2 µM | 28.2 µM | 26.7 µM | 42.2 µM | 36.2 µM | 32 µM | 34.9 µM | 35.7 µM |  |  |  |  | 
9 | c1ccc2nc(CCC3CCCCN3)ccc2c1 (stereo not given) | > 100 µM | 31.5 µM | > 100 µM | > 100 µM | > 100 µM | > 100 µM | > 100 µM | > 100 µM |  |  |  |  | 
10 | CC(NC(C#N)CC12CC3CC(CC(C3)C1)C2)c1ccccc1 (stereo not given) | 59.4 µM | > 100 µM | > 100 µM | 42.3 µM | > 100 µM | > 100 µM | > 100 µM | > 100 µM |  |  |  |  | 
11 | CS(=O)(=O)OCCCOS(C)(=O)=O | > 100 µM | > 100 µM | > 100 µM | > 100 µM |  |  | > 100 µM | > 100 µM | > 100 µM | > 100 µM | > 100 µM | > 100 µM | > 100 µM
12 | COc1ccc2cc(C(=O)NCCCNC(=O)c3ccc4cc(OC)ccc4c3)ccc2c1 | > 100 µM | > 100 µM | > 100 µM | > 100 µM | > 74.4 µM | > 100 µM | > 100 µM | > 100 µM |  |  |  |  | 
13 | NC(=O)c1nnsc1NC=O | > 100 µM | > 100 µM | > 100 µM | > 100 µM | > 100 µM | > 100 µM | > 100 µM | > 100 µM |  |  |  |  | 
14 | O=C1ON=C2C3CC4CC12CC1(C3)C(=O)ON=C41 | > 100 µM | > 100 µM | > 100 µM | > 100 µM | > 100 µM | > 100 µM | > 100 µM | > 100 µM |  |  |  |  | 
15 | O=C1c2ccccc2C(=O)c2c(O)ccc(O)c21 | > 100 µM | > 100 µM | > 100 µM | > 100 µM |  |  |  | > 100 µM | > 100 µM | > 100 µM | > 100 µM | 69.2 µM | > 100 µM
